Data from patent US10501493B2, “Broad spectrum antibiotics” (priority 2011, dated 2019).
≈ marks a conversion by molar mass, not a printed value. Read-outs that look alike come from different tables or passages of the source.

Assays:
[1] = tested on: S. epidermidis RP62A SpsIB(S29P); assay: In vitro antimicrobial activity, MIC by broth micro-dilution; format: cell-based; details: Staphylococcus epidermidis
[2] = tested on: E. coli MIG1655 LepB(P84L); assay: as above; format: cell-based; details: Escherichia coli
Outline: (§1)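 CLSI broth micro-dilution MIC against two-fold serial compound dilutions. Inoculum came from colonies grown 24 h at 35° C. or 28° C., suspended in cation-adjusted Mueller Hinton broth at 1*10^7 CFU/ml, of which 5 μl was added per 100 μl well. LepB(P84L) is a proline-mutant SPase strain with heightened arylomycin susceptibility.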

[3] = tested on: S. aureus NCTC-8325 SpsB(P295); assay: as above; format: cell-based; details: Staphylococcus aureus, NCTC8325
S. epidermidis RP62A = assay: as above; format: cell-based; details: Staphylococcus epidermidis; S. epidermidis RP62A; read-out: MIC
S. pneumoniae D39 = assay: as above; format: cell-based; details: Streptococcus pneumoniae; S. pneumoniae D39; read-out: MIC
[4] = tested on: P. aeruginosa PA01 LepB(P84L); assay: as above; format: cell-based; details: Pseudomonas aeruginosa
Outline: as §1

[5] = tested on: S. epidermidis RP62A SpsIB(S31P); assay: as above; format: cell-based; details: Staphylococcus epidermidis
S. aureus SPase = molecular target: T1, S. aureus SPase (Staphylococcus aureus, UniProt P0A070); assay: Steady state binding constant (Kd) determination by fluorescence increase
T1 construct: Full length His-tagged S. aureus SPase protein was expressed similarly; His-tag; made in house; host or cells: E. coli BL21(DE3)
Description: (§2) Full length His-tagged E. coli SPase proteins were expressed in E. coli BL21(DE3) containing the plasmid pET23-lepB, P. A. Smith et al. Chem Biol 2010, 1223-1231. Briefly, saturated overnight cultures grown in 20 ml of Luria-Bertani medium supplemented with ampicillin were subcultures into 1.5 L of Luria-Bertani, and shaken at 37° C. until an optical density at 600 nm of 0.4-0.5 was achieved. Protein expression was induced with Isopropyl β-D-1-thiogalactopyranoside (ITPG) at a final concentration of […], and purified using nickel affinity chromatography. Full length His-tagged S. aureus SPase protein was expressed similarly from E. coli BL21(DE3) containing the plasmid pCDF1-SaSpsB or pCDF1-SaSpsB(P29S) and purified similarly to the E. coli protein with the following exceptions. SPase protein was solubilized using 300 mM NaCl, 20 mM Tris pH 8.06, 5 mM Imidazole, 10% glycerol, 1% Triton X-100, prior to purification in Ni-NTA Superflow resin and resin bound protein was washed in a similar buffer containing 1% Elugent in place of Triton X-100 prior to protein eluted in wash buffer supplemented with 300 mM imidazole. Protein purify was judged to exceed 95% by visual inspection of SDS-PAGE followed by Comassie staining. All protein concentrations were determined by BCA assay.
(§3) Steady state binding constants (Kds) of compounds were determined by measuring an increase in fluorescence (λex=280 nm, λem=405 nm) that occurs upon binding to E. coli or S. aureus SPase protein. Two-fold serial dilutions of compounds were prepared in 100% DMSO, and compounds were diluted into binding buffer consisting of 100 mM NaCl, 20 mM Tris-HCl pH 7.4, 1 mM EDTA, 1% n-octyl-3-glucopyranoside (Anatrace), and 10% glycerol, with the final DMSO concentration equal to 1%. 70 μl of the resulting solutions containing various concentrations of compound in binding buffer were aliquoted into triplicate wells of a black polystyrene 384-well plate. 5 μl of blank solution or E. coli or S. aureus protein at concentrations of 750 or 3750 nM respectively, were added to each set of wells for a given inhibitor concentration. Plates were incubated for 14 hours and fluorescence read on an EnVision Multilable plate reader (Perkin Elmer™). Differences in fluorescence values between wells with and without protein were determined and background corrected for protein auto fluorescence. The corrected fluorescence difference data was fit to the quadratic equilibrium binding curve using the non-linear regression analysis software Solver (Frontline Systems®) run in Excel 2010, (Microsoft®), using experimentally determined quantum efficiency constants to convert fluorescence into nanomoles of protein/compound complex.

E. coli SPase = molecular target: T2, E. coli SPase (Escherichia coli, UniProt P00803); assay: as above
T2 construct: Full length His-tagged E. coli SPase proteins were expressed in E. coli BL21(DE3); His-tag; made in house; host or cells: E. coli BL21(DE3)
Description: as §2, §3

S. agalactiae COH-1 = assay: In vitro antimicrobial activity, MIC by broth micro-dilution; format: cell-based; details: Streptococcus agalactiae, COH1
S. pyogenes M15448 = assay: as above; format: cell-based; details: Streptococcus pyogenes
Outline: as §1

S. pyogenes ATCC 19615 = assay: as above; format: cell-based; details: Streptococcus pyogenes, ATCC19615, read-out: MIC
[6] = tested on: S. epidermidis ATCC 12228; assay: as above; format: cell-based; details: Staphylococcus epidermidis, ATCC12228, read-out: MIC
C. glutamicum DSM 44475 = assay: as above; format: cell-based; details: Corynebacterium glutamicum, DSM44475, read-out: MIC
S. aureus ATCC 29213 = assay: as above; format: cell-based; details: Staphylococcus aureus, ATCC29213, read-out: MIC
S. pneumoniae R800 = assay: as above; format: cell-based; details: Streptococcus pneumoniae, read-out: MIC
Outline: as §1

S. agalactiae ATCC 13813 = assay: as above; format: cell-based; details: Streptococcus agalactiae, ATCC13813, read-out: MIC
R. equi DSM 6939 = assay: as above; format: cell-based; details: Rhodococcus (subgen. Prescottella) equi, DSM6939, read-out: MIC
Outline: as §1

[7] = S. agalactiae COH-1, read-out: MIC
[8] = S. pyogenes M15448, read-out: MIC

Structure (SMILES) | MIC [1] [µg/mL] | MIC [2] [µg/mL] | MIC [3] [µg/mL] | MIC (S. epidermidis RP62A) [µg/mL] | MIC (S. pneumoniae D39) [µg/mL] | MIC [4] [µg/mL] | MIC [5] [µg/mL] | Kd (S. aureus SPase) [nM] | Kd (E. coli SPase) [nM] | MIC (S. agalactiae COH-1; [7]) [µg/mL] | MIC (S. pyogenes M15448; [8]) [µg/mL] | MIC (S. pyogenes ATCC 19615) [µg/mL] | MIC [6] [µg/mL] | MIC (C. glutamicum DSM 44475) [µg/mL] | MIC (S. aureus ATCC 29213) [µg/mL] | MIC (S. pneumoniae R800) [µg/mL] | MIC (S. agalactiae ATCC 13813) [µg/mL] | MIC (S. agalactiae COH-1) [µg/mL] | MIC (S. pyogenes M15448; M15448) [µg/mL] | MIC (R. equi DSM 6939) [µg/mL]
CCCCCCCCCCCCCCCC(=O)N(C)[C@H](CO)C(=O)N[C@H](C)C(=O)NCC(=O)N(C)[C@@H]1C(=O)N[C@@H](C)C(=O)N[C@H](C(N)=O)Cc2ccc(O)c(c2)-c2cc1ccc2O [Compound 11] | > 64 | 4 (≈ 4.54 µM) | 32 (≈ 36.4 µM) | 2 (≈ 2.27 µM) | 64 (≈ 72.7 µM) | > 64 | > 64 | 2100 | 100 | – | – | – | – | – | – | – | – | – | – | –
CCCCCCCCCCCCCCCC(=O)N(C)[C@H](CO)C(=O)N[C@H](C)C(=O)NCC(=O)N(C)[C@@H]1C(=O)N[C@@H](C)C(=O)N[C@H](C(=O)NC)Cc2ccc(O)c(c2)-c2cc1ccc2O [Compound 12] | 64 (≈ 71.6 µM) | 8 (≈ 8.95 µM) | – | 2 (≈ 2.24 µM) | > 64 | > 64 | > 64 | 600 | 240 | – | – | – | – | – | – | – | – | – | – | –
CCCCCCCCCCCCCCCC(=O)N(C)[C@H](CO)C(=O)N[C@H](C)C(=O)NCC(=O)N(C)[C@@H]1C(=O)N[C@@H](C)C(=O)N[C@H](C(=O)N(C)C)Cc2ccc(O)c(c2)-c2cc1ccc2O [Compound 13] | > 64 | 16 (≈ 17.6 µM) | – | 64 (≈ 70.5 µM) | > 64 | > 64 | > 64 | > 100000 | 2000 | – | – | – | – | – | – | – | – | – | – | –
CCCCCCCCCCCCCCCC(=O)N(C)[C@H](CO)C(=O)N[C@H](C)C(=O)NCC(=O)N(C)[C@@H]1C(=O)N[C@@H](C)C(=O)N[C@H](C(=O)N[C@@H](C)C(=O)N2CCCC2C(N)=O)Cc2ccc(O)c(c2)-c2cc1ccc2O (stereo partly shown) [Compound 14] | > 64 | 16 (≈ 15.3 µM) | 8 (≈ 7.63 µM) | 2 (≈ 1.91 µM) | 8 (≈ 7.63 µM) | > 64 | > 64 | 600 | 2800 | – | – | – | – | – | – | – | – | – | – | –
CCCCCCCCCCCCCCCC(=O)N(C)[C@H](CO)C(=O)N[C@H](C)C(=O)NCC(=O)N(C)[C@@H]1C(=O)N[C@@H](C)C(=O)N[C@H](C(=O)N[C@@H](C)C(N)=O)Cc2ccc(O)c(c2)-c2cc1ccc2O [Compound 15] | > 64 | 8 (≈ 8.41 µM) | 8 (≈ 8.41 µM) | 2 (≈ 2.1 µM) | 8 (≈ 8.41 µM) | > 64 | > 64 | 2000 | 5800 | > 64 | 16 (≈ 16.8 µM) | 16 (≈ 16.8 µM) | > 64 | > 64 | > 64 | 16 (≈ 16.8 µM) | > 64 | – | – | –
CCCCCCCCCCCCCCCC(=O)N(C)[C@H](CO)C(=O)N[C@H](C)C(=O)NCC(=O)N(C)[C@@H]1C(=O)N[C@@H](C)C(=O)N[C@H](C(=O)N[C@H](C)C(=O)O)Cc2ccc(O)c(c2)-c2cc1ccc2O [Compound 19] | > 64 | 8 (≈ 8.4 µM) | > 64 | 8 (≈ 8.4 µM) | 16 (≈ 16.8 µM) | > 64 | > 64 | 18000 | 2800 | – | – | 16 (≈ 16.8 µM) | 32 (≈ 33.6 µM) | 16 (≈ 16.8 µM) | > 64 | 32 (≈ 33.6 µM) | 32 (≈ 33.6 µM) | > 64 | 32 (≈ 33.6 µM) | –
CCCCCCCCCCCCCCCC(=O)N(C)[C@H](CO)C(=O)N[C@H](C)C(=O)NCC(=O)N(C)[C@@H]1C(=O)N[C@@H](C)C(=O)N[C@H](C(=O)N[C@H](C)C(=O)C(=O)N(C)C)Cc2ccc(O)c(c2)-c2cc1ccc2O [Compound 29] | > 64 | 16 (≈ 15.9 µM) | > 64 | 8 (≈ 7.94 µM) | 16 (≈ 15.9 µM) | > 64 | > 64 | – | – | 64 (≈ 63.5 µM) | 64 (≈ 63.5 µM) | 16 (≈ 15.9 µM) | 32 (≈ 31.8 µM) | 32 (≈ 31.8 µM) | > 64 | 32 (≈ 31.8 µM) | 32 (≈ 31.8 µM) | – | – | > 64
CCCCCCCCCCCCCCCC(=O)N(C)[C@H](CO)C(=O)N[C@H](C)C(=O)NCC(=O)N(C)[C@@H]1C(=O)N[C@@H](C)C(=O)N[C@H](C(=O)NCC(=O)N2CCC[C@H]2C(=O)O)Cc2ccc(O)c(c2)-c2cc1ccc2O [Compound 31] | > 64 | 16 (≈ 15.5 µM) | > 64 | 8 (≈ 7.73 µM) | 4 (≈ 3.86 µM) | > 64 | > 64 | – | – | > 64 | 16 (≈ 15.5 µM) | 8 (≈ 7.73 µM) | 32 (≈ 30.9 µM) | > 64 | > 64 | 8 (≈ 7.73 µM) | 8 (≈ 7.73 µM) | – | – | > 64
